# Data taken from PubChem BioAssay (NCI).
# Values joined by “and” are separate entries in the source; they are usually repeats but may differ in a detail not shown here. Equal values may be shown once.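 Each compound was tested at five concentrations against cells in 96-well plates for 48 hours. GI50 = concentration required for 50% inhibition of growth. TGI: concentration producing complete growth inhibition.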 Where a SMILES comes first, the peptide text is derived from it. The star is where a group is joined. CH2Cl = ClC*
# Experiments:
# Assay in all cases: NCI anticancer screen, dose series, 48 h
# [1] = test system: MALME-3M melanoma
# [2] = test system: HL-60(TB) leukemia
# [3] = test system: SNB-75 CNS
# [4] = test system: MOLT-4 leukemia
# [5] = test system: RPMI-8226 leukemia
# [6] = test system: T-47D breast
# [7] = test system: A549 NSCLC
# [8] = test system: HS 578T breast
# [9] = test system: M14 melanoma
# [10] = test system: MDA-MB-231 breast
# [11] = test system: OVCAR-4 ovarian
# [12] = test system: SK-MEL-2 melanoma
# [13] = test system: MCF7 breast
# [14] = test system: IGROV1 ovarian
# [15] = test system: HCT-116 colon
# [16] = test system: CAKI-1 renal
# [17] = test system: MDA-N
# [18] = test system: NCI/ADR-RES ovarian
# [19] = test system: SF-268 CNS
# [20] = test system: NCI-H23 lung
# [21] = test system: K-562 leukemia
# [22] = test system: HT29 colon
# [23] = test system: OVCAR-5 ovarian
# [24] = test system: MDA-MB-435
# [25] = test system: EKVX NSCLC
# [26] = test system: DU-145 prostate
# [27] = test system: ACHN renal
# [28] = test system: CCRF-CEM leukemia
# [29] = test system: NCI-H460 lung
# [30] = test system: SF-295 CNS
# [31] = test system: SK-OV-3 ovarian
# [32] = test system: SK-MEL-5 melanoma
# [33] = test system: HCT-15 colon
# [34] = test system: COLO 205 colon
# [35] = test system: OVCAR-3 ovarian
# [36] = test system: HCC-2998 colon
# [37] = test system: SR leukemia
# [38] = test system: RXF 393 renal
# [39] = test system: SK-MEL-28 melanoma
# [40] = test system: PC-3 prostate
# [41] = test system: SW-620 colon
# [42] = test system: 786-0 renal
# [43] = test system: UACC-62 melanoma
# [44] = test system: A498 renal
# [45] = test system: U251 CNS
# [46] = test system: BT-549 breast
# [47] = test system: KM12 colon
# [48] = test system: NCI-H226 lung
# [49] = test system: SN12C renal
# [50] = test system: HOP-62 NSCLC
# [51] = test system: SNB-19 CNS
# [52] = test system: OVCAR-8 ovarian
# [53] = test system: SF-539 CNS
# [54] = test system: UO-31 renal
# [55] = test system: TK-10 renal
# [56] = test system: HOP-92 NSCLC
# [57] = test system: LOX IMVI melanoma
# [58] = test system: UACC-257 melanoma
# [59] = test system: NCI-H522 lung
smiles,measurement,setting,value
CC(=O)NC(CC(C)C)C(=O)NC(Cc1ccccc1)C(=O)CCl (stereo not drawn) (Ac-Leu-Phe-CH2Cl; configuration not given here),TGI,[1],18.4 µM
same,TGI,[2],> 21.3 µM
same,TGI,[3],28.1 µM
same,TGI,[4],4.53 µM
same,TGI,[5],> 25 µM
same,TGI,[6],> 59.7 µM
same,TGI,[7],41.6 µM
same,TGI,[8],36.4 µM
same,TGI,[9],21.1 µM
same,TGI,[10],39.3 µM
same,TGI,[11],43.6 µM
same,TGI,[12],27.4 µM
same,TGI,[13],22.8 µM
same,TGI,[14],31.6 µM
same,TGI,[15],19.2 µM
same,TGI,[16],32.1 µM
same,TGI,[17],32.9 µM
same,TGI,[18],50.1 µM
same,TGI,[19],50.4 µM
same,TGI,[20],30.3 µM
same,TGI,[21],10.7 µM
same,TGI,[22],34.6 µM
same,TGI,[23],32.4 µM
same,TGI,[24],28 µM
same,TGI,[25],38.4 µM
same,TGI,[26],17 µM
same,TGI,[27],23.9 µM
same,TGI,[28],3.94 µM
same,TGI,[29],43.3 µM
same,TGI,[30],33.9 µM
same,TGI,[31],32.3 µM
same,TGI,[32],22.5 µM
same,TGI,[33],13.2 µM
same,TGI,[34],> 51.1 µM
same,TGI,[35],28.3 µM
same,TGI,[36],30.4 µM
same,TGI,[37],> 21.8 µM
same,TGI,[38],5.69 µM
same,TGI,[39],23.2 µM
same,TGI,[40],30.7 µM
same,TGI,[41],9.17 µM
same,TGI,[42],17 µM
same,TGI,[43],19 µM
same,TGI,[44],33.8 µM
same,TGI,[45],30.5 µM
same,TGI,[46],28.4 µM
same,TGI,[47],36 µM
same,TGI,[48],39.1 µM
same,TGI,[49],27 µM
same,TGI,[50],33.2 µM
same,TGI,[51],37.7 µM
same,TGI,[52],19.6 µM
same,TGI,[53],34.5 µM
same,TGI,[54],28.4 µM
same,TGI,[55],24.1 µM
same,TGI,[56],16.5 µM
same,TGI,[57],10.6 µM
same,TGI,[58],22.4 µM
same,TGI,[59],7.43 µM
Cc1[nH]c2ncn(Nc3ccccc3)c(=N)c2c1Cc1ccccc1,TGI,[1],> 100 µM
same,TGI,[2],> 100 µM
same,TGI,[3],> 100 µM
same,TGI,[4],> 100 µM
same,TGI,[5],> 100 µM
same,TGI,[6],> 86.9 µM
same,TGI,[7],> 100 µM
same,TGI,[8],> 100 µM
same,TGI,[9],> 100 µM
same,TGI,[10],> 100 µM
same,TGI,[11],> 100 µM
same,TGI,[13],> 100 µM
same,TGI,[14],98.4 µM
same,TGI,[15],> 100 µM
same,TGI,[16],> 70.6 µM
same,TGI,[17],> 100 µM
same,TGI,[18],> 100 µM
same,TGI,[19],> 100 µM
same,TGI,[20],> 100 µM
same,TGI,[21],> 100 µM
same,TGI,[22],> 100 µM
same,TGI,[23],> 100 µM
same,TGI,[24],> 100 µM
same,TGI,[25],> 100 µM
same,TGI,[26],> 100 µM
same,TGI,[27],> 100 µM
same,TGI,[28],> 100 µM
same,TGI,[29],> 100 µM
same,TGI,[30],> 100 µM
same,TGI,[31],> 100 µM
same,TGI,[32],> 100 µM
same,TGI,[33],> 100 µM
same,TGI,[34],> 100 µM
same,TGI,[35],> 100 µM
same,TGI,[36],> 100 µM
same,TGI,[37],> 100 µM
same,TGI,[38],> 91.6 µM
same,TGI,[39],> 100 µM
same,TGI,[40],> 100 µM
same,TGI,[41],> 100 µM
same,TGI,[42],> 100 µM
same,TGI,[43],> 100 µM
same,TGI,[44],> 100 µM
same,TGI,[45],> 100 µM
same,TGI,[46],> 100 µM
same,TGI,[47],> 56.8 µM
same,TGI,[48],> 100 µM
same,TGI,[49],> 100 µM
same,TGI,[50],> 100 µM
same,TGI,[51],> 100 µM
same,TGI,[52],> 100 µM
same,TGI,[53],> 100 µM
same,TGI,[54],> 100 µM
same,TGI,[55],> 100 µM
same,TGI,[56],> 100 µM
same,TGI,[57],> 100 µM
same,TGI,[58],> 100 µM
same,TGI,[59],> 100 µM
COc1ccc(C2CC(c3ccc4ccccc4c3O)=NN2)cc1OC (centres undefined),TGI,[1],> 100 µM
same,TGI,[3],> 100 µM
same,TGI,[4],65.4 µM
same,TGI,[5],> 100 µM
same,TGI,[6],> 100 µM
same,TGI,[7],> 100 µM
same,TGI,[8],> 100 µM
same,TGI,[9],> 100 µM
same,TGI,[10],96 µM
same,TGI,[11],> 100 µM
same,TGI,[12],> 100 µM
same,TGI,[13],> 100 µM
same,TGI,[14],> 100 µM
same,TGI,[15],> 100 µM
same,TGI,[16],> 100 µM
same,TGI,[17],60.8 µM
same,TGI,[18],> 100 µM
same,TGI,[19],> 100 µM
same,TGI,[20],> 100 µM
same,TGI,[21],52.1 µM
same,TGI,[22],> 100 µM
same,TGI,[23],> 100 µM
same,TGI,[24],> 100 µM
same,TGI,[26],> 100 µM
same,TGI,[27],> 100 µM
same,TGI,[28],42.6 µM
same,TGI,[29],> 100 µM
same,TGI,[30],> 100 µM
same,TGI,[31],> 100 µM
same,TGI,[32],> 100 µM
same,TGI,[33],> 100 µM
same,TGI,[34],> 100 µM
same,TGI,[35],> 100 µM
same,TGI,[36],> 100 µM
same,TGI,[37],46.3 µM
same,TGI,[38],> 100 µM
same,TGI,[39],> 100 µM
same,TGI,[40],> 100 µM
same,TGI,[41],> 100 µM
same,TGI,[42],> 100 µM
same,TGI,[43],> 100 µM
same,TGI,[44],> 100 µM
same,TGI,[45],> 100 µM
same,TGI,[46],74 µM
same,TGI,[47],> 100 µM
same,TGI,[48],> 100 µM
same,TGI,[49],> 100 µM
same,TGI,[50],> 100 µM
same,TGI,[52],> 100 µM
same,TGI,[53],> 100 µM
same,TGI,[54],> 100 µM
same,TGI,[55],> 100 µM
same,TGI,[56],> 100 µM
same,TGI,[58],> 100 µM
same,TGI,[59],> 100 µM
CC(=O)O[C@H]1CC2C(C3CC[C@H](C(C)CCC(N)=O)[C@]31C)[C@H](OC(C)=O)C[C@@H]1CC3(CC[C@]21C)OOC1(CCC(C)CC1)OO3 (some centres undefined),TGI,[1],9.95 µM and 4.07 µM
same,TGI,[2],6.13 µM and 4.82 µM
same,GI50,[3],1.98 µM
same,TGI,[3],4.05 µM
same,TGI,[4],4.47 µM and 4.44 µM
same,TGI,[5],4.07 µM
same,TGI,[6],4.19 µM and 4.21 µM
same,TGI,[7],6.13 µM
same,TGI,[8],5.77 µM and 5.51 µM
same,TGI,[9],8.64 µM and 3.76 µM
same,TGI,[10],4.94 µM
same,TGI,[11],3.52 µM and 3.02 µM
same,TGI,[12],4.37 µM and 3.2 µM
same,TGI,[13],15.2 µM and 5.01 µM
same,GI50,[14],1.54 µM and 0.491 µM
same,TGI,[14],3.07 µM and 1.84 µM
same,TGI,[15],5.36 µM and 3.72 µM
same,TGI,[16],5.15 µM and 3.25 µM
same,TGI,[17],4.91 µM
same,TGI,[18],8.01 µM and 3.28 µM
same,TGI,[19],4.46 µM
same,TGI,[20],5.29 µM and 3.45 µM
same,TGI,[21],16.8 µM and 5 µM
same,TGI,[22],7.01 µM
same,TGI,[23],4.86 µM and 3.66 µM
same,TGI,[24],4.47 µM and 3.23 µM
same,GI50,[25],1.01 µM and 1.43 µM
same,TGI,[25],2.35 µM and 2.78 µM
same,GI50,[26],1.82 µM
same,TGI,[26],3.26 µM
same,TGI,[27],3.88 µM and 2.93 µM
same,TGI,[28],3.33 µM and 4.43 µM
same,TGI,[29],8.76 µM
same,TGI,[30],12.3 µM and 3.59 µM
same,GI50,[31],4.3 µM and 2.11 µM
same,TGI,[31],16.3 µM and 3.94 µM
same,TGI,[32],11.6 µM and 3.22 µM
same,TGI,[33],4.89 µM and 3.43 µM
same,TGI,[34],3.19 µM and 3.12 µM
same,TGI,[35],3.51 µM and 3.8 µM
same,TGI,[36],4.57 µM and 3.96 µM
same,TGI,[37],3.28 µM
same,TGI,[38],9.72 µM
same,GI50,[39],5.65 µM and 2.48 µM
same,TGI,[39],14.3 µM and 8.13 µM
same,TGI,[40],9.44 µM and 4.29 µM
same,TGI,[41],11.5 µM and 4.24 µM
same,TGI,[42],3.78 µM and 3.2 µM
same,GI50,[43],1.85 µM
same,TGI,[43],3.99 µM
same,TGI,[44],29.3 µM and 24.4 µM
same,TGI,[45],3.78 µM
same,TGI,[46],6.43 µM and 3.35 µM
same,TGI,[47],4.69 µM and 3.41 µM
same,TGI,[48],6.2 µM and 3.15 µM
same,TGI,[49],5.69 µM and 3.24 µM
same,GI50,[50],1.47 µM and 1.07 µM
same,TGI,[50],2.96 µM and 2.31 µM
same,GI50,[51],5.31 µM and 2.62 µM
same,TGI,[51],19.4 µM and 5.72 µM
same,TGI,[52],4.56 µM and 3.12 µM
same,TGI,[53],7.1 µM and 3.37 µM
same,TGI,[54],3.08 µM and 2.64 µM
same,TGI,[55],8.39 µM and 3.57 µM
same,TGI,[56],6.25 µM and 3.56 µM
same,TGI,[58],22.9 µM and 19.2 µM
same,TGI,[59],3.6 µM and 2.94 µM
